Measurements published in ChEMBL document CHEMBL1629565, “Relationships among ciprofloxacin, gatifloxacin, levofloxacin, and norfloxacin MICs for fluoroquinolone-resistant Escherichia coli clinical isolates” (2009).
≈ marks a conversion by molar mass, not a printed value. Where “and” joins values, the source holds several entries; their conditions need not be identical. Equal values may be shown once.

Tests used:
Format in all cases: functional
Escherichia coli [1] = experiment: Antimicrobial activity against fluoroquinolone-resistant Escherichia coli clinical isolate by agar dilution method
Escherichia coli [2] = experiment: Antimicrobial activity against Escherichia coli ATCC 25922 by agar dilution method
Escherichia coli [3] = experiment: Antimicrobial activity against fluoroquinolone-resistant Escherichia coli clinical isolate by Etest
Escherichia coli [4] = experiment: Antimicrobial activity against fluoroquinolone-sensitive Escherichia coli clinical isolate by Etest

| SMILES | MIC (Escherichia coli [1]) [µg/mL] | MIC (Escherichia coli [2]) [µg/mL] | MIC (Escherichia coli [3]) [µg/mL] | MIC (Escherichia coli [4]) | MIC (Escherichia coli [4]; Escherichia coli, read-out: MIC) [µg/mL] |
| --- | --- | --- | --- | --- | --- |
| COc1c(N2CCNC(C)C2)c(F)cc2c(=O)c(C(=O)O)cn(C3CC3)c12 (stereo unspecified) [GATIFLOXACIN] | 23 (≈ 61.3 µM) | 0.004 (≈ 0.0107 µM) | 8 (≈ 21.3 µM) | – | – |
| CCn1cc(C(=O)O)c(=O)c2cc(F)c(N3CCNCC3)cc21 [NORFLOXACIN] | 232 (≈ 727 µM) | 0.03 (≈ 0.0939 µM) | 16 (≈ 50.1 µM) | 0.06 µg/mL and 0.02 µg/mL | – |
| C[C@H]1COc2c(N3CCN(C)CC3)c(F)cc3c(=O)c(C(=O)O)cn1c23.C[C@H]1COc2c(N3CCN(C)CC3)c(F)cc3c(=O)c(C(=O)O)cn1c23.O [LEVOFLOXACIN] | 39 | – | 8 | 0.023 µg/mL | 0.042 |
